{
  "source": "patent US9073857B2",
  "about": "“Aripiprazole type I microcrystal, aripiprazole solid preparations, and preparation method” (SHANGHAI ZHONGXI PHARMACEUTICAL CORPORATION, priority 2011, dated 2015)",
  "data": [
    {"assay": "Particle size by laser particle size distribution analyzer", "format": "physicochemical", "conditions": "Effect Example 2; microcrystals of the Examples", "experimental": "(§1) Measure the particle size of aripiprazole in the sample by the following methods, and compare the particle size of aripiprazole in different prescriptions and under different operating conditions.\n(§2) Test Instrument: BT˜9300S laser particle size distribution analyzer (Dandong Baxter technology Co., Ltd); BT˜800 automatic loop sampling system.\n(§3) Test conditions: the medium of the loop sampling system is water, with the volume of about 570 ml, and the centrifugal pump speed is 1600 rpm.\n(§4) Test Method: add appropriate amount of the samples into the loop sampling system, and make the absorbance of the system up to 15%±10, turn on the ultrasonic dispersion for 3 min, continuous sample for 6 times, and gain the average particle size.\n(§5) 1. Dissolve 10 g aripiprazole into aqueous ethanol solution containing hydrochloric acid (the molar ratio of hydrochloric acid to aripiprazole is 1.1, the concentration of the aqueous ethanol solution is 95%, the mass of the aqueous ethanol solution is 30 g), quickly add the 10% aqueous sodium hydroxide (the molar ratio of sodium hydroxide to hydrochloric acid is 1.01) all at once while stirring. Stir for 5 min then add 100 g water, stir again for 5 min, filter the precipitated crystal, wash twice with 20 g water each time and filter each time, dry the crystal at 80° C. for 4 hours, then obtain the aripiprazole microcrystal.\n(§6) 2. Dissolve 10 g aripiprazole into aqueous ethanol solution with hydrochloric acid (the molar ratio of hydrochloric acid to aripiprazole is 1.02), quickly add the 10% aqueous sodium hydroxide (the molar ratio of sodium hydroxide to hydrochloric acid is 1.0) all at once while stirring (with stirring linear speed of 160 m/min). Stir for 5 min then add 100 g water, stir again for 5 min, filter the precipitated crystal, wash twice with 20 g water each time and filter each time, dry the crystals at 80° C. for 4 hours, then obtain the aripiprazole microcrystal.\nas §6, with “3. Dissolve” for “2. Dissolve”, “acid (2.3 g 36% hydrochloric acid, 28.5 g anhydrous ethanol. The concentration” for “acid (the molar ratio”, “of the aqueous ethanol solution” for “of hydrochloric acid to aripiprazole”, “is 95%),” for “is 1.02), quickly”, “1.0)” for “1.0) all at once”, “the crystal” for “the crystals”", "units": {"particle size D10": "micron", "particle size D50": "micron", "particle size D90": "micron", "particle size D[4,3]": "micron"}, "values": [
      {"smiles": "O=C1CCc2ccc(OCCCCN3CCN(c4cccc(Cl)c4Cl)CC3)cc2N1", "note": "[Contrastive Example 1, aripiprazole]", "particle size D10": 9.31, "particle size D50": 29.85, "particle size D90": 60.39, "particle size D[4,3]": 32.85},
      {"smiles": "O=C1CCc2ccc(OCCCCN3CCN(c4cccc(Cl)c4Cl)CC3)cc2N1", "note": "[Example 2, aripiprazole]", "particle size D10": 1.85, "particle size D50": 10.91, "particle size D90": 29.82, "particle size D[4,3]": 14.17},
      {"smiles": "O=C1CCc2ccc(OCCCCN3CCN(c4cccc(Cl)c4Cl)CC3)cc2N1", "note": "[Example 3, aripiprazole]", "particle size D10": 1.43, "particle size D50": 11.64, "particle size D90": 34.65, "particle size D[4,3]": 15.64},
      {"smiles": "O=C1CCc2ccc(OCCCCN3CCN(c4cccc(Cl)c4Cl)CC3)cc2N1", "note": "[Example 4, aripiprazole]", "particle size D10": 1.18, "particle size D50": 8.78, "particle size D90": 24.78, "particle size D[4,3]": 10.99},
      {"smiles": "O=C1CCc2ccc(OCCCCN3CCN(c4cccc(Cl)c4Cl)CC3)cc2N1", "note": "[Example 5, aripiprazole]", "particle size D10": 0.74, "particle size D50": 4.75, "particle size D90": 16.34, "particle size D[4,3]": 6.79},
      {"smiles": "O=C1CCc2ccc(OCCCCN3CCN(c4cccc(Cl)c4Cl)CC3)cc2N1", "note": "[Example 23, aripiprazole]", "particle size D10": 1.52, "particle size D50": 9.67, "particle size D90": 32.17, "particle size D[4,3]": 13.42},
      {"smiles": "O=C1CCc2ccc(OCCCCN3CCN(c4cccc(Cl)c4Cl)CC3)cc2N1", "note": "[Example 24, aripiprazole]", "particle size D10": 1.00, "particle size D50": 3.93, "particle size D90": 8.7, "particle size D[4,3]": 4.73}
    ]},
    {"assay": "Particle size by laser particle size distribution analyzer", "format": "physicochemical", "conditions": "starting aripiprazole microcrystals of Example 1", "experimental": "as §1, §2, §3, §4, §5, §6\nas §6, with “3. Dissolve” for “2. Dissolve”, “acid (2.3 g 36% hydrochloric acid, 28.5 g anhydrous ethanol. The concentration” for “acid (the molar ratio”, “of the aqueous ethanol solution” for “of hydrochloric acid to aripiprazole”, “is 95%),” for “is 1.02), quickly”, “1.0)” for “1.0) all at once”, “the crystal” for “the crystals”", "units": {"D[4,3]": "mircon"}, "values": [
      {"smiles": "O=C1CCc2ccc(OCCCCN3CCN(c4cccc(Cl)c4Cl)CC3)cc2N1", "note": "[aripiprazole microcrystals, aripiprazole]", "D[4,3]": 32.85}
    ]},
    {"assay": "not given", "conditions": "within 45 minutes; disclosed at the Japan and South Korea Analytical Chemistry Annual Meeting in 1998; cited from earlier work", "values": [
      {"smiles": "O=C1CCc2ccc(OCCCCN3CCN(c4cccc(Cl)c4Cl)CC3)cc2N1", "note": "[aripiprazole type I crystal, aripiprazole]", "dissolution rate": "less than 70%"}
    ]},
    {"assay": "not given", "conditions": "crushed by the universal grinder through mechanical pulverization; cited from earlier work", "values": [
      {"smiles": "O=C1CCc2ccc(OCCCCN3CCN(c4cccc(Cl)c4Cl)CC3)cc2N1", "note": "[aripiprazole, 7-[4-[4-(2,3-dichlorophenyl)-1-piperazinyl]butoxy]-3,4-dihydro-2(1H)-quinolinone]", "average particle size": "about 100 micron"}
    ]}
  ]
}
